melting point [°C]	Compound
245 to 246	Cc1cc(C)c2sc(-c3ccccn3)nc(=O)c2c1
168 to 170	CC(C)(C)C(=O)Cn1ncc(-c2ccc(S(C)(=O)=O)cc2)c(-c2ccc(F)cc2)c1=O
134 to 136	Cc1cccc(N(C)C(=S)Oc2ccc(Cl)c(C)c2)n1
122 to 123	COC(=O)[C@H](Cc1ccc(OCCN2CCC(O)(c3ccccc3)CC2)cc1)NC(=O)[C@@H]1CCCN1S(=O)(=O)c1ccc(C)cc1
176	Cc1c(-c2ccccc2)nc(N)nc1C1CCN(Cc2cccc(C#N)c2)CC1
123 to 124	CCOC(=O)Nc1c(-c2ccccc2)c2cc(Cl)ccc2n1C
74 to 76	COc1cc(Br)cc([N+](=O)[O-])c1OCc1ccccc1
154 to 156	CC(=O)Oc1ccccc1NC(=O)c1cc(Cl)c(OC(C)=O)c(Cl)c1
149 to 151	CC(C)(O)c1ccc(CNC(=O)c2cccnc2Oc2ccc3nonc3c2)cc1
188 to 189	CC1(C)CN(c2ncc(C(=O)N(CC3CC3)c3cc(C(F)(F)F)ccc3F)c(N)n2)C(=O)N1
88 to 90	Clc1cccc(Oc2ncccc2Br)c1
214 to 216	CCOc1ccc(C(C)=O)cc1C(=O)Nc1c(C)cccc1C(N)=O
130 to 133	CC(=O)Cc1c(C)nc2ccccc2c1N
213 to 215	COC(=O)CCC(=O)N1CCc2cc(S(=O)(=O)N3CCN(c4ccc(F)cc4)CC3)ccc21
78 to 81	Nc1nc(Cn2c(-c3ccc(Oc4cncnc4)cc3)ccc2-c2ccccc2Cl)ccc1OCCO
245 to 250	Nc1ccc(C(=O)c2cnc(NC3CCCCC3)s2)cc1[N+](=O)[O-]
178 to 179	Cc1ccc(-c2ccc3c(c2)C=C(C(=O)Nc2ccc(CN(C)C4CCOCC4)cc2)CC(c2ccccc2)O3)cc1 (stereo not given)
220 to 223	Cc1cccc(Cl)c1C(=O)N[C@@H](Cc1ccc(-c2c(C(F)(F)F)cc(C)n(C)c2=O)cc1)C(=O)O
218 to 219	COc1ncccc1-c1cccn2nc(Cl)nc12
133	O=C(O)C1CCc2c(OCc3ccccc3)cccc21 (stereo not given)

melting point [°C]	Compound
139	CC(C)(C)c1ccc(SCCCCCOc2ccc(C3=C(c4ccccc4)CCCc4cc(O)ccc43)cc2)cc1
118 to 119	CC(C)Cc1nn(C)c(=O)c2cc(Cc3cccnc3)sc12
91 to 93	Cn1c(C(F)(F)F)cc(=O)n(-c2cc3c(cc2F)nc(C(F)(F)F)n3Cc2cccc(Cl)c2)c1=O
222 to 225	CCOc1ccc(-n2c(N)cc(=O)[nH]c2=S)cc1
144 to 146	Cc1cccc(C(=O)Cc2ccnc(-c3ccc(OCC(N)=O)cc3)c2)n1
127 to 128	CCNc1nc(C#N)c(C#N)nc1-c1cccc(Br)c1
256	Cc1cncn1-c1ccc(O)cc1
79 to 81	COc1cccc2c1OCN(CCc1ccccc1Cl)C2
221 to 223	Cc1cncc(Oc2cccc(NC(=O)N3CCc4c(cnc5[nH]nc(Br)c45)C3)c2)n1
245 to 247	CCc1nc2c(N)nc3cc(-c4cccnc4)ccc3c2n1CC(C)(C)O
111 to 112	COc1ccc(N2CCN(Cc3cn4cc(Cl)ccc4n3)CC2)cc1
143 to 144	CCOC(=O)C(NC(=O)N1CCc2cc(S(=O)(=O)N3CCN(c4cccc(Cl)c4)CC3)ccc21)C(C)C (stereo not given)
128	COC(=O)c1ccc(C(=O)CC(=O)c2ccc3c(c2)C(C)(C)CCC3(C)C)cc1
153 to 156	Nc1ccccc1Sc1ccccc1-c1nnn[nH]1
187 to 188	O=C(/C=C/c1ccc(F)cc1)c1cnc2sc3c(n12)CCCCC3
198 to 200	Nc1ccc(C(=O)N2CCC(c3[nH]nc4c3C(=O)c3c(NC(=O)NN5CCOCC5)cccc3-4)CC2)cc1
92 to 94	Nc1ccc(C(=O)OCc2ccccc2)c(F)n1
262	Cn1c(=O)cc(-c2cccc(Cl)c2)c2cc(C(O)(c3ccc(Cl)cc3)c3cnccc3N)ccc21 (stereo not given)
204	COc1ccc(-c2cc(=O)c3c(OCC(O)CO)cc(OCC(O)CO)cc3o2)cc1O (stereo not given)
235 to 237	O=C(O)CN(CC(=O)c1ccccc1)c1c(C(=O)O)[nH]c2cc(Cl)cc(Cl)c12

Second part, the compound before the results:

Compound	melting point [°C]
Cn1ncc(C#N)c1-c1ccc([N+](=O)[O-])o1	150 to 152
C[C@@H]1C(=O)N(CO)Cc2ccccc2[C@@H]1C (relative stereo)	91 to 92
CON=C(C)c1c(C)oc2c(-n3c(=O)cc(C(F)(F)F)n(C)c3=O)c(F)cc(Cl)c12	65 to 67
CCCOC(C)c1ccc(-c2ccc(OCc3ccccc3)cc2)cc1 (single isomer, unassigned; (+))	106 to 108
O=c1[nH]c2sc(Cl)c(C3CC3)c2[nH]c1=O	> 260
C=Cc1cc(C)cc(C)c1C1=C(O)C2(CCN(OC)CC2)NC1=O	198 to 200
CCCC(Cc1ccc(OCCN2CCCCCC2)cc1)(C(=O)OCC)S(=O)(=O)c1ccc(OC)cc1 (stereo not given)	55
Cc1c(O)cc2c(c1C)NCC2	164 to 167
OCc1ccccc1CBr	61 to 63
Clc1ccc(CN2CCN(CCN3CCCCC3)CC2c2ccccc2)cc1 (stereo not given)	85 to 87
OC1CCN(C(c2ccccc2)(c2ccccc2)c2ccccc2)CC1	157 to 158
COC(OC)c1cnc(C)nc1N	102 to 104
CCCc1c(OCCCS(=O)(=O)c2ccc(C(=O)OC)cn2)ccc(C(C)=O)c1O	114 to 116
C=Cc1ccc(Nc2nc(Cl)nc(Cl)c2Cl)cc1	112 to 114
O=C1CC(C(F)(F)F)CC(=O)N1c1cc(OS(=O)(=O)c2ccccc2)c(Cl)cc1F	214 to 215
C=CCON=C(CCC)C1=C(O)CC(c2ccc(OC)c(NC(C)=O)c2)CC1=O (stereo not given)	136 to 137
Cc1ccc(C)c(Oc2noc(=O)n2S(=O)(=O)N(C)C)c1	101 to 103
Cc1ccc(SCCC(=O)c2cc(O)c(O)c([N+](=O)[O-])c2)cc1	160 to 161
NC(C(=O)c1ccccc1)[N+](=O)[O-] (stereo not given)	110 to 111
COc1cccc([C@]23CCN(C)C(=O)[C@@H]2CCC2(C3)OCCO2)c1 (relative stereo)	180 to 181

Compound	melting point [°C]
O=c1[nH]nnn1-c1cc(C(F)(F)F)cc(C(F)(F)F)c1	145 to 147
O=C(O)C1=C(S(=O)(=O)c2ccccc2)CC2CC(=O)C12 (stereo not given)	205 to 207
CCOC(=O)c1cc(C(=O)NC)nc(C(=O)NC)c1N	185 to 186
CCOC(=O)C=CC=Cc1ccc(-n2ccnc2)cc1	126 to 127
CC(C)Oc1c(C(N)=O)n(C)c2ccc(O)cc12	234 to 237
CS(=O)CC(=O)c1ccc(Cl)cc1N (stereo not given)	129 to 132
CC(C)(C)C(=O)OCOC(=O)C1N2C(=O)C(NC(=O)C(N)c3ccccc3)C2SC1(C)C (stereo not given)	114 to 116
CCCCCCCCCCc1cccc(C(=O)N(O)CCCC(=O)O)c1	77 to 79
c1ccc(COc2ccc([C@H]3CC[C@@H](NCCOc4ccccc4)CC3)cc2)cc1	95 to 98
O=C(Cc1ccccc1)N=C1SCCN1Cc1ccc(Cl)nc1	157 to 158
Cc1ccsc1C(Cc1ccccc1O)N(C)C=O (stereo not given)	142 to 144
C=CCOc1cc(-c2cc(=O)c3c(OCC=C)c(CC=C)c(OCC=C)cc3o2)ccc1OC	107
COC(=O)c1cc(N)c(NS(C)(=O)=O)c(CO)c1	150 to 155
Cc1ccc2oc(CC(=O)O)c(C)c2c1	116 to 117
Nc1nnc(C(=O)OCc2ccccc2)s1	198 to 200
N#CC1CN1C(=O)Oc1ccc([N+](=O)[O-])cc1 (stereo not given)	100 to 104
CCCCc1n[nH]c(=S)n(N)c1=O	131
CCOC(=O)c1c(C)c[nH]c1C	74 to 76
Cn1c(C(F)(F)F)nn(-c2cc(F)c(C#N)cc2Cl)c1=O	105
CN=C(O)c1c(Sc2ccc(OC)cc2)c(Sc2ccc(OC)cc2)c(Sc2ccc(OC)cc2)c(Sc2ccc(OC)cc2)c1C(=O)O	168 to 170

Compound	melting point [°C]
CCOC(=O)C1=C(C)NC(CO)=C(C(=O)OCC)C1c1ccccc1Cl (stereo not given)	143
Cc1nc(C(=O)NC2CC2)c2n1-c1ccc(Cl)cc1C(c1ccccc1F)=NC2	196 to 197
O=c1[nH]c(N2CCC(N3CCCCC3)CC2)cc2ccccc12	> 200
COc1cc(-c2n[nH]c(SC)c2C)c(F)cc1Cl	95 to 100
N#CCCn1ccc(NC(=S)NCC(F)(F)F)n1	164 to 165
Nc1nc2c([nH]c(=O)n2Cc2cccs2)c(=O)[nH]1	> 300
Nc1ncc([N+](=O)[O-])c(OCc2ccccc2)n1	164 to 167
Cc1ccnc2c([N+](=O)[O-])cc3c(c12)OCO3	183 to 185
CCOCCn1c(C)c(C2(c3ccc(N(CC)CC)cc3CC)OC(=O)c3ccccc32)c2ccccc21 (stereo not given)	156 to 158
CC(C)C(=NSN(C)C(=O)Oc1cccc2c1OC(C)(C)C2)Sc1ccccc1	104 to 106
C=CCCCCCCCCCOc1ccc(-c2ccc(OCCCCCCCCCCCBr)cc2)cc1	93 to 94
CCOC(=O)c1cn(CCF)c2c(F)c(C(C)=O)c(F)cc2c1=O	155 to 156
NC(N)=NC(=O)Cc1c(-c2ccccc2)csc1-c1ccc(Oc2ccccc2)cc1	116 to 118
CCCCOc1csc(C)c1C(=O)O	66 to 68
Nc1ccc(OCc2nc(Cl)ccc2Cl)cc1	74 to 75
C1=C(c2ccccc2)CCN(CCCCc2cnc3ccccc3c2)C1	92.8 to 93.9
CC(C)CCCC(C)C1CCC2(C#N)C3C=CC4C(C)(C)C(OC(=O)c5ccccc5)CCC4(C)C3CCC12C (stereo not given)	232 to 233
CC(C)OC(=O)c1cc(-n2c(=O)[nH]c3c(c2=O)CSC3)c(F)cc1Cl	180 to 183
CCOC(=O)Cn1c(=O)c(=O)[nH]c2cc(C(F)(F)F)c(-n3c(C)ccc3C)cc21	262 to 263
CC(=O)NCCSc1cc(N)c([N+](=O)[O-])cc1N	162

Reference: a melting point compilation (Tetko et al.; mined from patent text by program, amines drawn as free bases though some values may be those of a salt)
